Assay results as given in ChEMBL document CHEMBL6087432, “Brominated chalcones as promising antileishmanial agents” (Bioorg Med Chem Lett, 2025).

What was measured:
[1] = Cytotoxicity against mouse L929 cells assessed as cell viability at 100 uM measured after 24 hrs by MTT assay relative to control; format: toxicity, cell-based; conditions: read-out: Activity
Leishmania amazonensis [2] = assay: Antileishmanial activity against Leishmania amazonensis promastigotes assessed as inhibition of parasite viability at 50 uM measured after 24 hrs by resazurin based colorimetric assay relative to control; format: functional
Leishmania amazonensis [3] = assay: Antileishmanial activity against Leishmania amazonensis promastigotes assessed as inhibition of parasite viability measured after 24 hrs by resazurin based colorimetric assay; format: functional, organism-based
[4] = Cytotoxicity against mouse L929 cells assessed as cell viability upto 50 uM measured after 24 hrs by MTT assay relative to control; format: toxicity, cell-based; conditions: read-out: Activity

SMILES: COc1cc(OC)c(OC)cc1/C=C/C(=O)c1ccc(Br)cc1
- viability at 24 h, 100 µM [1]: > 60%
- inhibition at 50 µM (Leishmania amazonensis [2]): 98.2%
- IC50 (Leishmania amazonensis [3]): 6.33 µM
- viability at 24 h, 50 µM [4]: > 80%

SMILES: CN(C)c1ccc(/C=C/C(=O)c2cccc(Br)c2)cc1
- viability at 24 h, 100 µM [1]: > 70%
- inhibition at 50 µM (Leishmania amazonensis [2]): 98.7%
- IC50 (Leishmania amazonensis [3]): 10.8 µM
- viability at 24 h, 50 µM [4]: > 80%

SMILES: O=C(/C=C/c1cccs1)c1ccc(Br)cc1
- inhibition at 50 µM (Leishmania amazonensis [2]): 93.6%

SMILES: COc1ccc(/C=C/C(=O)c2cccc(Br)c2)cc1
- inhibition at 50 µM (Leishmania amazonensis [2]): 93%

SMILES: COc1ccc(/C=C/C(=O)c2ccc(Br)cc2)cc1
- inhibition at 50 µM (Leishmania amazonensis [2]): 80.7%

SMILES: O=C(/C=C/c1ccccc1)c1cccc(Br)c1
- viability at 24 h, 100 µM [1]: > 60%
- inhibition at 50 µM (Leishmania amazonensis [2]): 99.8%
- IC50 (Leishmania amazonensis [3]): 13.8 µM
- viability at 24 h, 50 µM [4]: > 80%

SMILES: CN(C)c1ccc(/C=C/C(=O)c2ccc(Br)cc2)cc1
- inhibition at 50 µM (Leishmania amazonensis [2]): 91.2%

SMILES: CSc1ccc(/C=C/C(=O)c2ccc(Br)cc2)cc1
- inhibition at 50 µM (Leishmania amazonensis [2]): 39.3%

SMILES: Cc1ccc(/C=C/C(=O)c2ccc(Br)cc2)cc1
- inhibition at 50 µM (Leishmania amazonensis [2]): 57%

SMILES: O=C(/C=C/c1ccc2c(c1)OCO2)c1ccc(Br)cc1
- inhibition at 50 µM (Leishmania amazonensis [2]): 87.5%

SMILES: O=C(/C=C/c1cccc2ccccc12)c1ccc(Br)cc1
- inhibition at 50 µM (Leishmania amazonensis [2]): 83.9%

SMILES: O=C(/C=C/c1ccc(OCc2ccccc2)cc1)c1cccc(Br)c1
- inhibition at 50 µM (Leishmania amazonensis [2]): 95%

SMILES: O=C(/C=C/c1ccccc1F)c1ccc(Br)cc1
- viability at 24 h, 100 µM [1]: > 60%
- inhibition at 50 µM (Leishmania amazonensis [2]): 99.4%
- IC50 (Leishmania amazonensis [3]): 23.9 µM
- viability at 24 h, 50 µM [4]: > 80%

SMILES: Cc1ccc(/C=C/C(=O)c2cccc(Br)c2)cc1
- inhibition at 50 µM (Leishmania amazonensis [2]): 94.8%

SMILES: O=C(/C=C/c1ccccc1F)c1cccc(Br)c1
- inhibition at 50 µM (Leishmania amazonensis [2]): 91.7%

SMILES: O=C(/C=C/C=C/c1ccccc1)c1ccc(Br)cc1
- inhibition at 50 µM (Leishmania amazonensis [2]): 33.8%

SMILES: O=C(/C=C/c1cccs1)c1cccc(Br)c1
- inhibition at 50 µM (Leishmania amazonensis [2]): 86.7%

SMILES: O=C(/C=C/C=C/c1ccccc1)c1cccc(Br)c1
- inhibition at 50 µM (Leishmania amazonensis [2]): 90.8%

SMILES: O=C(/C=C/c1cccc2ccccc12)c1cccc(Br)c1
- inhibition at 50 µM (Leishmania amazonensis [2]): 90.8%

SMILES: O=C(/C=C/c1ccc(OCc2ccccc2)cc1)c1ccc(Br)cc1
- inhibition at 50 µM (Leishmania amazonensis [2]): 24.2%

SMILES: CSc1ccc(/C=C/C(=O)c2cccc(Br)c2)cc1
- viability at 24 h, 100 µM [1]: > 70%
- inhibition at 50 µM (Leishmania amazonensis [2]): 97.3%
- IC50 (Leishmania amazonensis [3]): 11.4 µM
- viability at 24 h, 50 µM [4]: > 80%

SMILES: C[C@@H]1[C@H](O)[C@@H](C)/C=C/C=C/C=C/C=C/C=C/C=C/C=C/[C@H](O[C@@H]2O[C@H](C)[C@@H](O)[C@H](N)[C@@H]2O)C[C@@H]2O[C@](O)(C[C@@H](O)C[C@@H](O)[C@H](O)CC[C@@H](O)C[C@@H](O)CC(=O)O[C@H]1C)C[C@H](O)[C@H]2C(=O)O [AMPHOTERICIN B]
- IC50 (Leishmania amazonensis [3]): 0.115 µM

SMILES: O=C(/C=C/c1ccccc1)c1ccccc1 [CHALCONE]
- inhibition at 50 µM (Leishmania amazonensis [2]): 90.1%
- IC50 (Leishmania amazonensis [3]): 10.6 µM
